Data: patent publication US20110136880A1, “Latrunculin-Based Macrolides and Their Uses” (priority 2009, published 2011)
Read-outs that look alike come from different tables or passages of the source.

Assays:
pyrene-conjugated actin = biological target: T1, pyrene-conjugated actin (Oryctolagus cuniculus, UniProt P68135); experiment: Pyrene actin polymerization assay; assay type: biochemical; conditions: for inhibition at 0.1 µM: read-out: Actin polymerization inhibition (%) 100 nM; for inhibition at 1 µM: read-out: Actin polymerization inhibition (%) 1 μM; for IC50: mean ± SEM, triplicate
T1 construct: purchased Cytoskeleton, Denver, Colo
Experimental: An actin polymerization kit was used to assess the direct actin-binding activity of each analogue at two concentrations: 100 nM and 1 μM. This kit is based on the enhanced fluorescence of pyrene-conjugated actin that occurs during polymerization. When pyrene-G-actin (monomer) forms pyrene-F-actin, fluorescence is enhanced. The enhanced fluorescence is used to follow polymerization over time. Table 2 lists activities as the percentage of actin polymerization inhibition, compared to the negative vehicle control (DMSO), along with calculated IC50.
Pyrene-Actin Polymerization Assays. Actin polymerization assays were performed in accordance with the manufacturer's instructions (Cytoskeleton, Denver, Colo.). Briefly, […] final concentration of monomeric actin (1:10 pyrene labeled) was incubated on ice for 10 min with one of various concentrations of one of the latrunculin derivatives. Samples were then equilibrated 10 min in an ELISA plate reader (BioTek, VT), after which polymerization was induced by adding KCl, MgCl2, and ATP. Compounds 1-14 were tested at 0.1, 0.5, 1.0, and 10 μM. The IC50 for each compound was calculated using GraphPad Prism 5.0.
Pyrene-actin polymerization assays. Actin polymerization inhibitory activity is assessed using the Cytoskeleton Actin Polymerization kit (Cytoskeleton, Denver, Colo.). Briefly, […] (final concentration) of monomeric actin (1:10 pyrene labeled) is incubated on ice for 10 min with one of various concentrations of the test latrunculin compound. Samples are equilibrated 10 min in an ELISA plate reader (BioTek, VT), after which polymerization is induced by adding KCl, MgCl2, and ATP. Compounds are tested at 0.1, 0.5, 1.0, and 10 μM. The IC50 for each compound is calculated using GraphPad Prism 5.0.

MCF7 = experiment: MTT proliferation assay, MCF7; assay type: cell-based, human; conditions: Homo sapiens, read-out: IC50 (μM) MCF7
Description: (§1) The antiproliferative and anti-invasive activities of compounds 1-14 were quantified using MTT and cell invasion assay kits, respectively. Latrunculin A (compound 1) was used as a positive control in all biological assays, because it is known to be an actin polymerization inhibitor, with cytotoxic, antiproliferative, and anti-invasive activities. The 3-[4,5-dimethylthiazol-2-yl]-2,5-diphenyl tetrazolium bromide (MTT) assay selectively detects living cells in a quantitative, colorimetric fashion, based on a living cell's ability to reduce MTT to an insoluble, purple formazan dye. The MTT assay is routinely used to assess cytotoxicity and proliferation inhibition activities. The antiproliferative activities of compounds 1-14 were measured against two human mammary gland adenocarcinoma cell lines, MCF7 and MDA-MB-231, and against human prostate cancer cells PC-3 at five different doses (0.1, 0.5, 1, 10, and 50 μM). While many of the semisynthetic latrunculins had similar activity levels, some had greater activity than compound 1. […] Although the MDA-MB-231 cells were more resistant than MCF7 against most latrunculin derivatives tested, compound 14 had potent activity against both cell lines.
(§2) MTT Proliferation Assay. The growth of MCF7, MDA-MB-231, and PC-3 cancer cell lines was measured using an MTT kit (TACS™, TREVIGEN®, Inc.). Exponentially growing cells were plated in a 96-well plate at a density of 8×10^3 cells per well, and allowed to attach for 24 h. Complete growth medium was then replaced with 100 μL of RPMI serum-free medium containing various concentrations (50, 10, 1, 0.5, 0.1 μM) of the particular test compound. Culture continued at 37° C. under 5% CO2. After 72 h of culture, the cells were treated with MTT solution (10 μL/well) at 37° C. for 4 h. The color reaction was stopped by adding solubilization/stop solution (100 μL/well). Incubation continued at 37° C. continued to completely dissolve the formazan dye product. Absorbance of the samples was determined at 570 nm with an ELISA plate reader (BioTek, VT). The number of cells per well was calculated against a standard curve that had been prepared by plating various concentrations of cells, as determined by hemocytometer, at the start of each experiment. IC50 for each compound was calculated using a nonlinear regression curve fit of log concentration versus the number of cells/well, using GraphPad Prism 5.0 (GraphPad Software, La Jolla, Calif.).

PC-3 = experiment: MTT proliferation assay, PC-3; assay type: cell-based, human; conditions: Homo sapiens, read-out: IC50 (μM) PC-3
Description: as §1, §2

MDA-MB-231 = experiment: MTT proliferation assay, MDA-MB-231; assay type: cell-based, human; conditions: Homo sapiens, read-out: IC50 (μM) MDA-MB-231
Description: as §1, §2

MDA-MB-231 cells = experiment: Cultrex BME cell invasion assay; assay type: cell-based, human; conditions: for anti-invasive activity compared with compound 1: 1 and 0.5 μM doses
Experimental: The anti-invasive activities of compounds 1-14 were measured using a 96 well basement membrane extract (BME) cell invasion assay kit against the highly metastatic MDA-MB-231 cells. This assay employs a simplified Boyden Chamber with a polyethylene terephthalate membrane (8 μm pore size). Cell invasion was quantified using calcein-acetomethylester (calcein-AM). Cells internalize calcein-AM; intracellular esterases then cleave the acetomethylester moiety to generate free calcein. Free calcein fluoresces brightly. This fluorescence may be used to quantify the number of cells that have invaded across the BME. To correlate the anti-invasive activities of the latrunculin A derivatives with their actin-disrupting activities, compounds 1-14 were each tested at non-toxic concentrations. […] Accordingly, all compounds were tested at 0.1, 0.5, and 1.0 μM. Compound 3 killed 17% of MDA-MB-231 cells at 1.0 μM, while the same dose of compound 3 inhibited 95% of MDA-MB-231 cells' invasion. […] The anti-invasive activities of compounds 1-14 are attributed primarily to the inhibition of actin polymerization, not to cell death per se.
Cultrex® Cell Invasion Assay. Anti-invasive activities were measured using Trevigen's Cultrex® Cell Invasion Assay as described in K. Tamilarasan et al., BMC Cell Biol. 2006, 7, 17-30; and P. Borghesani et al., Development. 2002, 6, 1435-1442. About 50 μL of basement membrane extract (BME) coat was added to each well. After incubation for 4 h at 37° C. under 5% CO2, 50,000 MDA-MB-231 cells in 50 μL of serum free RPMI medium were added to each well in the top chamber, along with the test compound at one of several concentrations (0.1, 0.5, 1 μM). About 150 μL of RPMI medium was added to the lower chamber in 10% FBS and penicillin/streptomycin, using fibronectin ([…]) and N-formyl-met-leu-phe (10 nM) as chemoattractants. Cells were allowed to migrate to the lower chamber at 37° C. under 5% CO2. After 24 h, the top and bottom chambers were aspirated and washed with the washing buffer that had been supplied with the kit. About 100 μL of Cell Dissociation Solution/Calcein-AM solution was added to the bottom chamber, and the cells were incubated at 37° C. under CO2 for 1 h. Briefly, the cells internalize calcein-AM, and then the intracellular esterases cleave the AM moiety to generate free calcein. […] The number of cells that had invaded through the BME coat was calculated using a standard curve.

[1] = 100 nM, compared to vehicle control (DMSO)
[2] = 1 μM, compared to vehicle control (DMSO)
[3] = MDA-MB-231, MTT, 72 h, mean ± SEM

Row | Compound | inhibition at 0.1 µM (pyrene-conjugated actin; [1]) | inhibition at 1 µM (pyrene-conjugated actin; [2]) | IC50 (pyrene-conjugated actin) | IC50 (MCF7; MCF7, MTT, 72 h, mean ± SEM) | IC50 (PC-3; PC-3, MTT, 72 h) | IC50 (MDA-MB-231; [3]) | anti-invasive activity compared with compound 1 (MDA-MB-231 cells) | fold more active against cell invasion than latrunculin A (compound 1) (MDA-MB-231 cells; 0.5 μM) | inhibition at 0.1 µM (pyrene-conjugated actin) | inhibition at 1 µM (pyrene-conjugated actin) | IC50 (MCF7; MCF7, 72 h) | IC50 (PC-3; PC-3, 72 h) | IC50 (MDA-MB-231; MDA-MB-231, 72 h)
1 | CO[C@]1([C@@H]2CSC(=O)N2C2CCCC2)C[C@H]2C[C@@H](CC[C@H](C)/C=C\C=C\CC/C(C)=C\C(=O)O2)O1 [Compound 7, 17-O-Methyl-N-cyclopentanelatrunculin A] | 20% | 49% | 1050 ± 271 nM | 5.3 ± 1.32 µM | 7.24 µM | 5.07 ± 0.72 µM | – | – | – | – | – | – | –
2 | C/C1=C/C(=O)O[C@@H]2C[C@@H](CC[C@H](C)/C=C\C=C\CC1)O[C@@](OC(=O)c1ccccc1)([C@@H]1CSC(=O)N1)C2 [Compound 4, 17-O-Benzoyllatrunculin A] | 23% | 67% | 466 ± 51 nM | 0.52 ± 0.14 µM | 6.44 µM | 5.05 ± 0.36 µM | equipotent to compound 1 | – | – | – | – | – | –
3 | C/C1=C/C(=O)O[C@@H]2C[C@@H](CC[C@H](C)/C=C\C=C\CC1)O[C@@](O)([C@@H]1CSC(=O)N1Cc1ccccc1)C2 [Compound 13, N-Benzyllatrunculin A] | 24% | 64% | 445 ± 79 nM | 0.63 µM | 3.8 µM | 2.72 µM | – | 3.1 fold | – | – | – | – | –
4 | CO[C@]1([C@@H]2CSC(=O)N2C(=O)c2ccccc2)C[C@H]2C[C@@H](CC[C@H](C)/C=C\C=C\CC/C(C)=C\C(=O)O2)O1 [Compound 10, 17-O-Methyl-N-benzoyllatrunculin A] | 17% | 53% | 834 ± 109 nM | 0.55 ± 0.091 µM | 4.7 µM | 4.48 ± 1.79 µM | – | – | – | – | – | – | –
5 | CCN1C(=O)SC[C@H]1[C@@]1(OC)C[C@H]2C[C@@H](CC[C@H](C)/C=C\C=C\CC/C(C)=C\C(=O)O2)O1 [Compound 6, 17-O-Methyl-N-ethyllatrunculin A] | 0% | 18% | > 10000 nM | 20.6 ± 2.77 µM | 29.3 µM | > 50 µM | – | – | – | – | – | – | –
6 | CO[C@]1([C@@H]2CSC(=O)N2)C[C@H]2C[C@@H](CC[C@H](C)/C=C\C=C\CC/C(C)=C\C(=O)O2)O1 [Compound 2, 17-O-Methyllatrunculin A] | 6% | 21% | 9230 ± 825 nM | 10.2 ± 1.72 µM | 22.3 µM | 23.4 ± 0.85 µM | – | – | – | – | – | – | –
7 | CO[C@]1([C@@H]2CSC(=O)N2C)C[C@H]2C[C@@H](CC[C@H](C)/C=C\C=C\CC/C(C)=C\C(=O)O2)O1 [Compound 5, 17-O-Methyl-N-methyllatrunculin A] | 11% | 19% | > 10000 nM | 13.1 ± 3.69 µM | 19.4 µM | 19.9 ± 3.27 µM | – | – | – | – | – | – | –
8 | CO[C@]1([C@@H]2CSC(=O)N2Cc2ccccc2)C[C@H]2C[C@@H](CC[C@H](C)/C=C\C=C\CC/C(C)=C\C(=O)O2)O1 [Compound 9, 17-O-Methyl-N-benzyllatrunculin A] | 33% | 67% | 333 ± 76 nM | 0.78 ± 0.24 µM | 8.3 µM | 6.82 ± 1.41 µM | – | – | – | – | – | – | –
9 | CO[C@]1([C@@H]2CSC(=O)N2CCCO)C[C@H]2C[C@@H](CC[C@H](C)/C=C\C=C\CC/C(C)=C\C(=O)O2)O1 [Compound 8, 17-O-Methyl-N-(3′-hydroxypropyl)latrunculin A] | 0% | 21% | 8550 ± 574 nM | 19.2 ± 3.91 µM | 34.2 µM | > 50 µM | – | – | – | – | – | – | –
10 | C/C1=C/C(=O)O[C@@H]2C[C@@H](CC[C@H](C)/C=C\C=C\CC1)O[C@@](O)([C@@H]1CSC(=O)N1)C2 [Compound 1, Latrunculin A, reference compound] | – | – | 284 ± 72 nM | – | – | – | – | – | 30% | 73% | 0.48 ± 0.04 µM | 3.9 µM | 4.19 ± 1.49 µM
11 | CCN1C(=O)SC[C@H]1[C@@]1(O)C[C@H]2C[C@@H](CC[C@H](C)/C=C\C=C\CC/C(C)=C\C(=O)O2)O1 [Compound 12, N-Ethyllatrunculin A] | 32% | 70% | 283 ± 51 nM | 0.95 µM | 5.72 µM | 7.19 µM | equipotent to compound 1 | – | – | – | – | – | –
